Measurements reported in patent US10138212B2, “Aminoquinazoline compounds as A2A antagonist” (Merck Sharp & Dohme Corp., priority 2015, dated 2018).

Columns and labels:
human A2a receptor = human A2a receptor (Homo sapiens (Human), UniProt P29274); experiment: A2a competition binding assay using Scintillation Proximity technology
Method: (§1) Binding affinities of compounds of the invention for the human A2a receptor were determined in a competition binding assay using Scintillation Proximity technology. Thus, 1* μg, or preferably 0.25 μg of membranes from HEK293 cells expressing the human A2a receptor were incubated with a compound of the invention at concentrations ranging from 3000 nM to 0.15 nM in a reaction mixture containing also 0.5 nM of a tritiated form of 5-amino-7-[2-phenethyl]-2-(furan-2-yl)-7H-pyrazolo[4,3-e][1,2,4]triazolo[1,5-c]pyrimidine (the tritiated compound) and 25 μg of wheat germ agglutin-coated yttrium silicate SPA beads for one hour at room temperature with agitation. The beads were then allowed to settle to the bottom of the wells for 1 hr, after which the membrane-associated radioactivity was determined by scintillation counting in a TopCount microplate reader. Ki values were determined using the Cheng-Prusoff equation.
HEK293 cells expressing the human, rat, dog or monkey adenosine 2a receptor (Purchased from Perkin-Elmer # RBHA2AM400UA).
The Tritiated compound was prepared in-house by MRL Radiochemistry according to published methods.
Wheat germ agglutinin-coated yttrium silicate SPA beads (GE Healthcare #RPNQ0023). Dilute to 25 mg/ml in assay buffer.
Assay Buffer was prepared in house: Dulbecco's calcium and magnesium free phosphate buffered saline+10 mM MgCl2
Adenosine deaminase from calf intestine, 10 mg/2 ml (Roche #10 102 105 001).
A2a antagonist standard (9-chloro-1-(2-furanyl)-[1,2,4]triazolo1,5-c]quinazolin-5-amine from Tocris Bioscience)
Make eight 1:3 serial dilutions in 100% DMSO from a 3 mM compound stock
Transfer 50 nl of compound into a 384-well OptiPlate (Perkin Elmer).
Typically, final concentrations of compound used in the assay ranged from 3000 nM to 0.152 nM.
Dilute a solution of the Tritiated compound to 1.25 nM in assay buffer. This is a 2.5× solution. The final concentration in the assay is 0.5 nM. Calculate the concentration by counting two 5 μl aliquots.
Use *1 ug or preferrably 0.25 ug of membrane/well. Dilute membranes to 9.7 μg/ml in assay buffer. Treat with 20 ug/ml adenosine deaminase (ADA) for 15 minutes at room temperature to degrade endogenous adenosine.
Use 25 μg/well wheat germ agglutinin-coated yttrium silicate SPA beads.
Mix ADA-treated membranes and SPA beads together for 30 min prior to assay.
To the Perkin-Elmer Optiplate-384 containing the compound titration add 20 μl of 2.5× solution of the Tritiated compound and 30 μl of the membrane-bead mixture. Incubate for one hour at room temperature with agitation.
Include total binding (assay buffer+1% DMSO) and non-specific binding (CGS15943, 1 μM) wells.
Allow the beads to settle for one hour.
A curve fitting program (i.e., Prism, Activity Base, Chemcart) is used to determine the EC50. The Ki value is calculated using the Cheng-Prusoff equation. Ki=EC50/(1+(radioligand concentration/Kd))
Using the foregoing assay method, the Ki results were obtained using the compounds of the invention described in Tables IIIa, IIIb, and IV. Each example compound tested is reported in the following format: Example number: A2a Ki reported in nM. Thus, for example, the compound Ex-1 was determined to have an Ki using the above-described assay and calculations, of 10.0 nM.

human A1 receptor = human A1 receptor (Homo sapiens (Human), UniProt P30542); experiment: A1 competition binding assay using Scintillation Proximity technology; selectivity = A1 binding Ki / A2a binding Ki; settings: A1 binding Ki divided by A2a binding Ki
Method: as §1, with “A1” for “A2a”, “5” for “1* μg, or preferably 0.25 μg”, “CHO-K1” for “HEK293”, “0.7” for “0.5”, “8-Cyclopentyl-1,3-dipropylxanthine” for “5-amino-7-[2-phenethyl]-2-(furan-2-yl)-7H-pyrazolo[4,3-e][1,2,4]triazolo[1,5-c]pyrimidine”, “in a similar fashion described with A2a binding.” for “using the Cheng-Prusoff equation.”
• Cells expressing the human, rat, dog or monkey adenosine 1 receptor (Purchased from Perkin-Elmer # ES-010-M400UA • [^3H]DPCPX (purchased from Perkin-Elmer NET-974, 8-cyclopentyl-1,3-dipropylxanthine, [dipropyl-2,3-^3H(N)]. • Wheatgerm agglutinin-coated yttrium silicate SPA beads (Purchased from GE Healthcare #RPNQ0023). Dilute to 25 mg/ml in assay buffer. Store at 4° C. • Assay Buffer—Dulbecco's phosphate buffered saline without calcium and without magnesium+10 mM MgCl2 • Adenosine deaminase from calf intestine, 10 mg/2 ml (Roche #10 102 105 001). • DMSO • DPCPX (A1 antagonist) from Tocris Bioscience Compound Dilution • Dilute compounds to 1 mM in 100% DMSO
Make serial dilutions as necessary (i.e., 1:10, 1:3) in 100% DMSO.
Dilute 1:20 into assay buffer (i.e. 3 ul into 57 ul buffer). This is a 5× solution in 5% DMSO.
• Dilute [^3H]DPCPX to 1.75 nM in assay buffer. This is a 2.5× solution. The final concentration in the assay is 0.7 nM. Calculate the concentration by counting two 5 ul aliquots. Membrane Preparation • Use 5 ug of membrane/well. Dilute membranes to 250 ug/ml in assay buffer. Treat with 20 ug/ml adenosine deaminase (ADA) for 15 minutes at room temperature to degrade endogenous adenosine. Membrane-Bead Mixture • Use 25 ug/well wheatgerm agglutinin-coated yttrium silicate SPA beads • Mix ADA-treated membranes and SPA beads together for 30 min prior to assay. Assay Assembly • Add in order to a Perkin-Elmer Optiplate-384: 10 ul of 5× compound, 20 ul of 2.5× [^3H]DPCPX, 20 ul membrane-bead mixture. Incubate for one hour at room temperature with agitation. • Include total binding (assay buffer+1% DMSO) and non-specific binding (DPCPX, 1 uM) wells. Counting and Calculations

[1] = 0.25 μg of membranes from HEK293 cells expressing the human A2a receptor
[2] = * assay run with 1 μg of membranes versus 0.25 μg, HEK293 cells expressing the human A2a receptor

Chain of human A2a receptor (P29274 whole entry): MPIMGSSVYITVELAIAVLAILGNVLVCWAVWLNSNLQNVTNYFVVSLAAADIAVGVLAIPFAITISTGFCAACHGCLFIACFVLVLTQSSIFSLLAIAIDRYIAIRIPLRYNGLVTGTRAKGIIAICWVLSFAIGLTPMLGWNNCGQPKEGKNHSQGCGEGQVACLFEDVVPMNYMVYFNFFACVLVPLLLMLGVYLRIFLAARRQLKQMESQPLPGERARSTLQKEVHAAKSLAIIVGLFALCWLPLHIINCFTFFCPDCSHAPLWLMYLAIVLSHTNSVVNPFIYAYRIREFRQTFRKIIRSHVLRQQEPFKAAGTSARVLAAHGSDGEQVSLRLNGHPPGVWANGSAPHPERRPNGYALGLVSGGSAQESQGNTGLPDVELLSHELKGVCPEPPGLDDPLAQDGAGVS
Chain of human A1 receptor (P30542 whole entry): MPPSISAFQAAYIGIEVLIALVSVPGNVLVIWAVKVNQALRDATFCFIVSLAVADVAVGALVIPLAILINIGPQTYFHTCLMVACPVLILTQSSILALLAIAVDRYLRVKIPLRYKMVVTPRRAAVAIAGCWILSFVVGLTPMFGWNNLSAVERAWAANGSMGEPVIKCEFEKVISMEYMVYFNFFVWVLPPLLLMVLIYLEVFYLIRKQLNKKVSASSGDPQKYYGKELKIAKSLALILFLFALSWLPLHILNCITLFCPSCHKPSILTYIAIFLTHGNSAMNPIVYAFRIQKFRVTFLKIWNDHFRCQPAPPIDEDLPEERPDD

Compound: Cc1cccc(CNC(=O)c2nc(N)nc3c(Cl)cc(Cl)cc23)n1 [Example 93, 2-amino-6,8-dichloro-N-[(6-methyl-2-pyridyl)methyl]quinazoline-4-carboxamide]
- Ki (human A2a receptor; [1]): 6.5 nM
- A2a selectivity (A2a A1 binding selectivity) (human A1 receptor): 55

Compound: Nc1nc(C(=O)NCc2cccc3cccnc23)c2cccc(-c3cncnc3)c2n1 [Example 97, 2-amino-8-pyrimidin-5-yl-N-(8-quinolylmethyl)quinazoline-4-carboxamide]
- Ki (human A2a receptor; [1]): 291 nM
- A2a selectivity (A2a A1 binding selectivity) (human A1 receptor): 1

Compound: COc1cccc2c(C(=O)NCc3cccc(-c4cccc(O)c4)n3)nc(N)nc12 [Example 8, 2-amino-N-[[6-(3-hydroxyphenyl)-2-pyridyl]methyl]-8-methoxy-quinazoline-4-carboxamide]
- Ki (human A2a receptor; [2]): 3.3 nM
- A2a selectivity (A2a A1 binding selectivity) (human A1 receptor): 4

Compound: COc1cccc2c(C(=O)NCc3ncccc3C(F)(F)F)nc(N)nc12 [Example 19, 2-amino-8-methoxy-N-[[3-(trifluoromethyl)-2-pyridyl]methyl]quinazoline-4-carboxamide]
- Ki (human A2a receptor; [1]): 2.6 nM
- A2a selectivity (A2a A1 binding selectivity) (human A1 receptor): 53

Compound: COc1cccc2c(C(=O)NCc3cccc(C4(O)CCC4)n3)nc(N)nc12 [Example 4, 2-amino-N-[[6-(1-hydroxycyclobutyl)-2-pyridyl]methyl]-8-methoxy-quinazoline-4-carboxamide]
- Ki (human A2a receptor; [1]): 0.6 nM
- A2a selectivity (A2a A1 binding selectivity) (human A1 receptor): 314

Compound: Nc1nc(C(=O)NCc2cccc(Cc3ccc(F)c(F)c3)n2)c2cccc(F)c2n1 [Example 102, 2-amino-N-[[6-[(3,4-difluorophenyl)methyl]-2-pyridyl]methyl]-8-fluoro-quinazoline-4-carboxamide]
- Ki (human A2a receptor; [1]): 1.2 nM
- A2a selectivity (A2a A1 binding selectivity) (human A1 receptor): 33

Compound: CCn1cccc(CNC(=O)c2nc(N)nc3c(OC)cccc23)c1=O [Example 13, 2-amino-N-[(1-ethyl-2-oxo-3-pyridyl)methyl]-8-methoxy-quinazoline-4-carboxamide]
- Ki (human A2a receptor; [1]): 0.2 nM
- A2a selectivity (A2a A1 binding selectivity) (human A1 receptor): 112

Compound: Nc1nc(C(=O)NCc2cccc(COc3ccccn3)n2)c2cccc(F)c2n1 [Example 46, 2-amino-8-fluoro-N-[[6-(2-pyridyloxymethyl)-2-pyridyl]methyl]quinazoline-4-carboxamide]
- Ki (human A2a receptor; [1]): 2.2 nM
- A2a selectivity (A2a A1 binding selectivity) (human A1 receptor): 484

Compound: [2H]C([2H])(NC(=O)c1nc(N)nc2c(OC)cccc12)c1cccc(Oc2cncc(OC)c2)n1 [Example 58, 2-amino-N-[dideuterio-[6-[(5-methoxy-3-pyridyl)oxy]-2-pyridyl]methyl]-8-methoxy-quinazoline-4-carboxamide]
- Ki (human A2a receptor; [2]): 5 nM
- A2a selectivity (A2a A1 binding selectivity) (human A1 receptor): 16

Compound: COc1cccc2c(C(=O)NCc3cccc(C(F)(F)F)n3)nc(N)nc12 [Example 18, 2-amino-8-methoxy-N-[[6-(trifluoromethyl)-2-pyridyl]methyl]quinazoline-4-carboxamide]
- Ki (human A2a receptor; [1]): 0.4 nM
- A2a selectivity (A2a A1 binding selectivity) (human A1 receptor): 412

Compound: CS(=O)(=O)c1cccc2c(C(=O)NCc3cccc4cccnc34)nc(N)nc12 [Example 95, 2-amino-8-methylsulfonyl-N-(8-quinolylmethyl)quinazoline-4-carboxamide]
- Ki (human A2a receptor; [1]): 86 nM
- A2a selectivity (A2a A1 binding selectivity) (human A1 receptor): 55

Compound: Cc1cccn2cc(CNC(=O)c3nc(N)nc4c(F)cccc34)nc12 [Example 81, 2-amino-8-fluoro-N-[(8-methylimidazo[1,2-a]pyridin-2-yl)methyl]quinazoline-4-carboxamide]
- Ki (human A2a receptor; [1]): 6.9 nM
- A2a selectivity (A2a A1 binding selectivity) (human A1 receptor): 12

Compound: COc1cccc2c(C(=O)NCc3cccc(CSc4nc5ccccc5[nH]4)n3)nc(N)nc12 [Example 56, 2-amino-N-[[6-(1H-benzimidazol-2-ylsulfanylmethyl)-2-pyridyl]methyl]-8-methoxy-quinazoline-4-carboxamide]
- Ki (human A2a receptor; [1]): 6.3 nM
- A2a selectivity (A2a A1 binding selectivity) (human A1 receptor): 111

Compound: COc1cccc2c(C(=O)NCc3nc(C)ccc3F)nc(N)nc12 [Example 20, 2-amino-N-[(3-fluoro-6-methyl-2-pyridyl)methyl]-8-methoxy-quinazoline-4-carboxamide]
- Ki (human A2a receptor; [1]): 0.5 nM
- A2a selectivity (A2a A1 binding selectivity) (human A1 receptor): 89

Compound: COc1cccc2c(C(=O)NCc3cccc(Cc4cccnc4)n3)nc(N)nc12 [Example 104, 2-amino-8-methoxy-N-((6-(pyridin-3-ylmethyl)pyridin-2-yl)methyl)quinazoline-4-carboxamide]
- Ki (human A2a receptor; [2]): 5 nM
- A2a selectivity (A2a A1 binding selectivity) (human A1 receptor): 93

Compound: COc1cccc2c(C(=O)NCc3cccc(COc4ccc(F)cc4)n3)nc(N)nc12 [Example 45, 2-amino-N-[[6-[(4-fluorophenoxy)methyl]-2-pyridyl]methyl]-8-methoxy-quinazoline-4-carboxamide]
- Ki (human A2a receptor; [1]): 0.3 nM
- A2a selectivity (A2a A1 binding selectivity) (human A1 receptor): 230

Compound: COc1cccc2c(C(=O)NCc3cccc4cccnc34)nc(N)nc12 [Example 12, 2-amino-8-methoxy-N-(8-quinolylmethyl)quinazoline-4-carboxamide]
- Ki (human A2a receptor; [1]): 0.2 nM
- A2a selectivity (A2a A1 binding selectivity) (human A1 receptor): 32

Compound: Nc1nc(C(=O)NCc2cccc(Cc3ccccc3F)n2)c2cccc(F)c2n1 [Example 111, 2-amino-8-fluoro-N-[[6-[(2-fluorophenyl)methyl]-2-pyridyl]methyl]quinazoline-4-carboxamide]
- Ki (human A2a receptor; [2]): 1.3 nM
- A2a selectivity (A2a A1 binding selectivity) (human A1 receptor): 28

Compound: COc1cccc(CNC(=O)c2nc(N)nc3c(OC)cccc23)n1 [Example 21, 2-amino-8-methoxy-N-[(6-methoxy-2-pyridyl)methyl]quinazoline-4-carboxamide]
- Ki (human A2a receptor; [1]): 0.8 nM
- A2a selectivity (A2a A1 binding selectivity) (human A1 receptor): 82

Compound: [2H]C([2H])(NC(=O)c1nc(N)nc2c(OC)cccc12)c1cccc(C([2H])([2H])c2cccc(OCCOC)c2)n1 [Example 106, 2-amino-N-[dideuterio-[6-[dideuterio-[3-(2-methoxyethoxy)phenyl]methyl]-2-pyridyl]methyl]-8-methoxy-quinazoline-4-carboxamide]
- Ki (human A2a receptor; [2]): 1.9 nM
- A2a selectivity (A2a A1 binding selectivity) (human A1 receptor): 70
